Activity calls are given as the source filed them. The calls are words filed in the database; no cut-off is given here.
What was measured:
3T3-L1 = experiment: Inhibition of triglyceride accumulation in mouse 3T3L1 cells at 10 uM after 24 hrs; type: functional; conditions: for inhibition at 10 µM: 3T3-L1, 24 h
Mus musculus [1] = experiment: Decrease in insulin resistance in diet-induced obese C57Bl/6 mouse assessed as induction of insulin secretion at 50 mg/kg/day, po for 4 weeks by insulin tolerance test; type: functional, organism-based
Rattus norvegicus [2] = experiment: Acute toxicity in Sprague-Dawley rat assessed as mortality at 2.5 g/kg, po as single dose measured after 7 days; type: organism-based; conditions: in vivo, 2500 mg/kg, 168 h
Rattus norvegicus [3] = experiment: Acute toxicity in Sprague-Dawley rat assessed as clinical signs at 2.5 g/kg, po as single dose measured after 7 days; type: organism-based; conditions: in vivo, 2500 mg/kg, 168 h
Mus musculus [4] = experiment: Antiobesity activity in diet-induced obese C57Bl/6 mouse assessed as reduction in body weight at 50 mg/kg/day, po for 4 weeks administered with high-fat diet; type: functional; parameters: scale not given: the % may be the effect or the level left
Mus musculus [5] = experiment: Antiobesity activity in diet-induced obese C57Bl/6 mouse assessed as reduction in fasting blood glucose at 50 mg/kg/day, po for 4 weeks administered with high-fat diet (reference value: 5.0 +/- 1.30 mM); type: functional
Rattus norvegicus [6] = experiment: Acute toxicity in Sprague-Dawley rat assessed as change in body weight at 2.5 g/kg, po as single dose measured after 7 days; type: organism-based; conditions: in vivo, 2500 mg/kg, 168 h
Mus musculus [7] = experiment: Antiobesity activity in diet-induced obese C57Bl/6 mouse assessed as reduction in FFA level at 50 mg/kg/day, po for 4 weeks administered with high-fat diet (reference value: 19.55 +/- 1.57 ng/L); type: functional
Mus musculus [8] = experiment: Antiobesity activity in diet-induced obese C57Bl/6 mouse assessed as reduction in hepatic triglyceride level at 50 mg/kg/day, po for 4 weeks administered with high-fat diet by Oil Red O staining-based histological method; type: functional; parameters: scale not given: the % may be the effect or the level left
Mus musculus [9] = experiment: Toxicity in diet-induced obese C57Bl/6 mouse assessed as change in food intake at 50 mg/kg/day, po for 4 weeks administered with high-fat diet; type: organism-based; parameters: route oral; conditions: in vivo, 672 h
Mus musculus [10] = experiment: Antiobesity activity in diet-induced obese C57Bl/6 mouse assessed as loss of liver weight at 50 mg/kg/day, po for 4 weeks administered with high-fat diet; type: functional
Mus musculus [11] = experiment: Increase in glucose tolerance in diet-induced obese C57Bl/6 mouse at 50 mg/kg/day, po for 4 weeks by oral glucose tolerance test; type: functional, organism-based
Mus musculus [12] = experiment: Antiobesity activity in diet-induced obese C57Bl/6 mouse assessed as loss of epididymal fat mass at 50 mg/kg/day, po for 4 weeks administered with high-fat diet; type: functional
Mus musculus [13] = experiment: Antiobesity activity in diet-induced obese C57Bl/6 mouse assessed as reduction in lipid droplets in liver at 50 mg/kg/day, po for 4 weeks administered with high-fat diet by Oil Red O staining-based histological method; type: functional, organism-based
Mus musculus [14] = experiment: Antiobesity activity in diet-induced obese C57Bl/6 mouse assessed as reduction in HOMA-IR value at 50 mg/kg/day, po for 4 weeks administered with high-fat diet (reference value: 3.06 +/- 0.85 no_unit); type: functional
Mus musculus [15] = experiment: Antiobesity activity in diet-induced obese C57Bl/6 mouse assessed as increase in HDL level at 50 mg/kg/day, po for 4 weeks administered with high-fat diet (reference value: 0.60 +/- 0.17 mM); type: functional
Mus musculus [16] = experiment: Antiobesity activity in diet-induced obese C57Bl/6 mouse assessed as change in insulin level at 50 mg/kg/day, po for 4 weeks administered with high-fat diet (reference value: 11.85 +/- 2.6 mU); type: functional
Mus musculus [17] = experiment: Toxicity in diet-induced obese C57Bl/6 mouse assessed as change in AST level at 50 mg/kg/day, po for 4 weeks administered with high-fat diet (reference value: 125.00 +/- 35.00 U/L); type: organism-based; parameters: route oral; conditions: in vivo, 672 h
Mus musculus [18] = experiment: Antiobesity activity in diet-induced obese C57Bl/6 mouse assessed as reduction in triglyceride level at 50 mg/kg/day, po for 4 weeks administered with high-fat diet (reference value: 0.93 +/- 0.09 mM); type: functional
Mus musculus [19] = experiment: Antiobesity activity in diet-induced obese C57Bl/6 mouse assessed as reduction in fat accumulation in liver at 50 mg/kg/day, po for 4 weeks administered with high-fat diet by Oil Red O staining-based histological method; type: functional, organism-based
Mus musculus [20] = experiment: Antiobesity activity in diet-induced obese C57Bl/6 mouse assessed as reduction in LDL level at 50 mg/kg/day, po for 4 weeks administered with high-fat diet (reference value: 0.14 +/- 0.07 mM); type: functional
Mus musculus [21] = experiment: Toxicity in diet-induced obese C57Bl/6 mouse assessed as change in ALT level at 50 mg/kg/day, po for 4 weeks administered with high-fat diet (reference value: 33.00 +/- 18.23 U/L); type: organism-based; parameters: route oral; conditions: in vivo, 672 h

SMILES: C=CCn1c(-c2ccc(OCCN(C)c3ccccn3)cc2)nc2c1c(=O)n(Cc1ccc(F)cc1)c(=O)n2C
- inhibition (3T3-L1): inactive

SMILES: CCOC(=O)Cn1c(-c2ccc(OCCN(C)c3ccccn3)cc2)nc2c1c(=O)n(Cc1ccccc1C#N)c(=O)n2C
- inhibition (3T3-L1): inactive

SMILES: CN(CCOc1ccc(-c2nc3c(c(=O)n(Cc4ccccc4C#N)c(=O)n3C)n2CCCC(=O)O)cc1)c1ccccn1
- inhibition (3T3-L1): inactive

SMILES: CCCn1c(-c2ccc(OCCN(C)c3ccccn3)cc2)nc2c1c(=O)n(Cc1ccccc1C#N)c(=O)n2C
- Activity (Mus musculus [1]): inactive
- Activity (Rattus norvegicus [2]): Non-toxic
- inhibition at 10 µM (3T3-L1): 51.1%
- Activity (Rattus norvegicus [3]): Non-toxic
- Activity (Mus musculus [4]): 7.64%
- Activity (Mus musculus [5]): 7.25 mM
- Activity (Rattus norvegicus [6]): Non-toxic
- Activity (Mus musculus [7]): 24.43 ng/L
- Activity (Mus musculus [8]): 5.15%
- Activity (Mus musculus [9]): Non-toxic
- Activity (Mus musculus [10]): 12.8%
- Activity (Mus musculus [11]): inactive
- Activity (Mus musculus [12]): 4.76%
- Activity (Mus musculus [13]): inactive
- Activity (Mus musculus [14]): 3.99
- Activity (Mus musculus [15]): 0.96 mM
- Activity (Mus musculus [16]): 12.04 mU
- Activity (Mus musculus [17]): 150 U/L
- Activity (Mus musculus [18]): 1.15 mM
- Activity (Mus musculus [19]): Active
- Activity (Mus musculus [20]): 0.16 mM
- Activity (Mus musculus [21]): 86 U/L

SMILES: CCn1c(-c2ccc(OCCN(C)c3ccccn3)cc2)nc2c1c(=O)n(Cc1ccc(OC)cc1)c(=O)n2C
- inhibition (3T3-L1): inactive

SMILES: CC(C)=CCn1c(-c2ccc(OCCN(C)c3ccccn3)cc2)nc2c1c(=O)n(Cc1ccccc1C#N)c(=O)n2C
- inhibition (3T3-L1): inactive

SMILES: C=CCn1c(-c2ccc(OCCN(C)c3ccccn3)cc2)nc2c1c(=O)n(Cc1ccccc1C#N)c(=O)n2C
- inhibition (3T3-L1): inactive

SMILES: CN(CCOc1ccc(-c2nc3c(c(=O)n(Cc4ccccc4C#N)c(=O)n3C)n2CC(=O)O)cc1)c1ccccn1
- inhibition (3T3-L1): inactive

SMILES: CCOC(=O)CCCn1c(-c2ccc(OCCN(C)c3ccccn3)cc2)nc2c1c(=O)n(Cc1ccccc1C#N)c(=O)n2C
- inhibition (3T3-L1): inactive

SMILES: NC(=O)c1ncn([C@@H]2O[C@H](CO)[C@@H](O)[C@H]2O)c1N [ACADESINE]
- inhibition at 10 µM (3T3-L1): 51%

SMILES: CCCn1c(=O)c2[nH]c(-c3ccc(OCCN(C)c4ccccn4)cc3)nc2n(C)c1=O
- inhibition (3T3-L1): inactive

SMILES: C=CCn1c(-c2ccc(OCCN(C)c3ccccn3)cc2)nc2c1c(=O)n(Cc1ccc(OC)cc1)c(=O)n2C
- inhibition (3T3-L1): inactive

SMILES: C=CCn1c(=O)c2c(nc(-c3ccc(OCCN(C)c4ccccn4)cc3)n2CC=C)n(C)c1=O
- inhibition (3T3-L1): inactive

SMILES: CCCn1c(=O)c2c(nc(-c3ccc(OCCN(C)c4ccccn4)cc3)n2CC)n(C)c1=O
- inhibition (3T3-L1): inactive

SMILES: CN(CCOc1ccc(-c2nc3c(c(=O)n(Cc4ccccc4C#N)c(=O)n3C)n2C)cc1)c1ccccn1
- inhibition (3T3-L1): inactive

SMILES: CN(CCOc1ccc(-c2nc3c(c(=O)n(CC(=O)O)c(=O)n3C)n2CC(=O)O)cc1)c1ccccn1
- inhibition (3T3-L1): Active
